Reference: patent publication US12377176B2, “Cancer diagnostic imaging agents” (Technische Universität München, priority 2019, dated 2025)
Several values for one entry are separate records, joined by “and”; a condition that tells them apart may be missing. Identical values can stand only once. Like-named read-outs stand apart in the source and are kept apart here. One block for each molecule: values may come before it.

Legend:
HSA [1] = target: T1, HSA (Homo sapiens, UniProt P02768); test: HSA binding on Chiralpak HSA column; type: in vitro ADME; conditions: for Log K HSA: logarithmic K of human serum albumin binding, calibration reference; for HSA Binding: Chiralpak HSA column (50 × 3 mm, 5 μm), (n = 6)
T1 construct: purchased H13H-2433
T1 sequence (P02768 25-609): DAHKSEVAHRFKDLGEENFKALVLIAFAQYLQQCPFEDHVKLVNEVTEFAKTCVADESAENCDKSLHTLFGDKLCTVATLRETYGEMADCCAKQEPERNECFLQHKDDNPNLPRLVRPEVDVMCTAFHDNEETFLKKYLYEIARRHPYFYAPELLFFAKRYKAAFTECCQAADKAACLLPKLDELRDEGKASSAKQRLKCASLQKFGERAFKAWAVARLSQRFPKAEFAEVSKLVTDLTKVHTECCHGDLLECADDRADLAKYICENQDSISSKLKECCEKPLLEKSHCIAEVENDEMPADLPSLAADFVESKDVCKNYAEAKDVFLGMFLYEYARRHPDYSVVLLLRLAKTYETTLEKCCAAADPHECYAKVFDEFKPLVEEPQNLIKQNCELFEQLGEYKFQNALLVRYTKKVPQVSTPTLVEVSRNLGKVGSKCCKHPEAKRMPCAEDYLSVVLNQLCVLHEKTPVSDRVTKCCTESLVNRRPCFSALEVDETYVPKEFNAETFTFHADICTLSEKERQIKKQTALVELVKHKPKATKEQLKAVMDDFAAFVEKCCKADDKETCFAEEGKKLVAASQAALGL
Procedure: The mobile phase (A: NH4OAc, 50 mM in water, pH 7 and B: isopropanol) was freshly prepared for each experiment and only used for one day. The column was kept at room temperature and each run was stopped after detection of the signal to reduce the acquisition time. All substances were dissolved in a 0.5 mg/ml concentration in 50% 2-propanol and 50% 50 mM pH 6.9 ammonium acetate buffer. […] All nine reference substances were injected consecutively to establish a non-linear regression with Origin Pro 2016G.

HSA [2] = target: T1, HSA; conditions: literature value of human serum albumin binding (Yamazaki 2004); calibration reference; cited from earlier work
LNCaP cells = test: Internalization into LNCaP cells, relative to ([125I]I-BA)KuE; type: cell-based; conditions: for internalization rate Mean / individual internalization rates: LNCaP cells, 1 h, 37 °C, c=0.5 nM; for individual internalization rates: single measurements
Procedure: Data is corrected for non-specific binding ([…]) and expressed as mean±SD (n=3).
Subsequent to the removal of the culture medium, the cells were washed once with 500 μL DMEM-F12 (5% BSA) and left to equilibrate for at least 15 min at 37° C. in 200 μL DMEM-F12 (5% BSA). Each well was treated with either 25 μL of either DMEM-F12 (5% BSA) or a 100 μM PMPA solution for blockade. Next, 25 μL of the ^68Ga/^18F-labeled PSMA inhibitor (5.0 nM) was added and the cells incubated at 37° C. for 60 min. The experiment was terminated by placing the 24-well plate on ice for 3 min and consecutive removal of the medium. Each well was rinsed with 250 μL HBSS and the fractions from these first two steps combined, representing the amount of free radioligand. Removal of surface bound activity was accomplished by incubation of the cells with 250 μL of ice-cold PMPA (10 μM in PBS) solution for 5 min and rinsed again with another 250 μL of ice-cold PBS. The internalized activity was determined by incubation of the cells in 250 μL 1 M NaOH and the combination with the fraction of a subsequent wash step with 250 μL 1.0 M NaOH. Each experiment (control and bloackde) was performed in triplicate. Free, surface bound and internalized activity was quantified in a γ-counter. […] Data were corrected for non-specific internalization and normalized to the specific-internalization observed for the radioiodinated reference compound.

PSMA = target: T2, PSMA (Homo sapiens, UniProt Q04609); test: Determination of IC50: PSMA affinity, competition with ([125I]I-BA)KuE on LNCaP cells; type: binding
T2 construct: endogenous in cells; host or cells: LNCaP cells
T2 sequence (Q04609 whole entry): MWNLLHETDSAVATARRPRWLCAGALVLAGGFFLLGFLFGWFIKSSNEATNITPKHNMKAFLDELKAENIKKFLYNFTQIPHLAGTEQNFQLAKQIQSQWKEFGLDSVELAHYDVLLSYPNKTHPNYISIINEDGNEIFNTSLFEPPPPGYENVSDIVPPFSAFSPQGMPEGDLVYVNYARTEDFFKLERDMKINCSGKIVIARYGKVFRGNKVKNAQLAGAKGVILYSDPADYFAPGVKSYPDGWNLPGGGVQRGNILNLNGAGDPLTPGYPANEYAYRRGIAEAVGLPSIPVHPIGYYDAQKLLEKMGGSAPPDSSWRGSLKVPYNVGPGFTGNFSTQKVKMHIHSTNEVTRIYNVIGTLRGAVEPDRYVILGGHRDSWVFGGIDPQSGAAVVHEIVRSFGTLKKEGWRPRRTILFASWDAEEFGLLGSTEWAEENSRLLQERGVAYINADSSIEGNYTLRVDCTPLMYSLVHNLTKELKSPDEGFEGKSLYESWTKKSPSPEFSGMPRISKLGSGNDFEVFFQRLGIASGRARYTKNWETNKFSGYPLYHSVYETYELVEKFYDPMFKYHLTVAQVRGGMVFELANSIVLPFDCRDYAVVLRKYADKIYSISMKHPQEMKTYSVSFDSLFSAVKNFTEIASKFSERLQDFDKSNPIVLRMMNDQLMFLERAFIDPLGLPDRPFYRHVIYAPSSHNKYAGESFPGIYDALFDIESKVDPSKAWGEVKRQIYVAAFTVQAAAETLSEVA
Procedure: After removal of the culture medium, the cells were treated once with 500 μL of HBSS (Hank's balanced salt solution, Biochrom, Berlin, Germany, with addition of 1% bovine serum albumin (BSA)) and left 15 min on ice for equilibration in 200 μL HBSS (1% BSA). […] Quantification of bound and free radioligand was accomplished in a γ-counter.

[3] = system: LNCaP tumor-bearing CB-17 SCID mice; conditions: male, mouse, in vivo, 1 h
Procedure: To establish tumor xenografts, LNCaP cells (10^7 cells/200 μL) were suspended in a 1:1 mixture (v/v) of Dulbecco modified Eagle medium/Nutrition Mixture F-12 with Glutamax-I (1:1) and Matrigel (BD Biosciences, Germany), and inoculated subcutaneously onto the right shoulder of 6-8 weeks old CB17-SCID mice (Charles River, Sulzfeld, Germany). Mice were used for when tumors had grown to a diameter of 5-8 mm (3-4 weeks after inoculation).
Approximately 1-2 MBq (<0.2 nmol) of the ^18F-labeled PSMA inhibitor was injected into the tail vein of LNCaP tumor-bearing male CB-17 SCID mice and sacrificed after 1 h post injection (n=4-5). Selected organs were removed, weighted and measured in a γ-counter

[4] = Octanol-water partition coefficient (n-octanol/PBS pH 7.4); type: physicochemical
Procedure: Approximately 1 MBq of the labeled tracer was dissolved in 1 mL of a 1:1 mixture (by volumes) of phosphate buffered saline (PBS, pH 7.4) and n-octanol in an Eppendorf tube. After vigorous mixing of the suspension for 3 minutes at room temperature, the vial was centrifuged at 15000 g for 3 minutes (Biofuge 15, Heraus Sepatech, Osterode, Germany) and 100 μL aliquots of both layers were measured in a gamma counter. The experiment was repeated at least six times.
Determianation of the logP values was carried out in phosphate buffered saline (PBS, pH 7.4) and n-octanol (=logPoct/PBS).

[5] = Wängler et al., Bioconjug Chem. 2010; cited from earlier work
[6] = mean ± SD as quoted in the discussion
[7] = LNCaP cells, [125I]IB-KuE 0.2 nM, 1 h, 4 °C, HBSS+1% BSA, single measurements, read-out: individual IC50 measurements
[8] = LNCaP cells, [125I]IB-KuE 0.2 nM, 1 h, 4 °C, mean of the individual measurements, read-out: IC50 Mean

Molecule: Nc1ccccc1 [Aniline]
- Log K HSA (HSA [1]): −0.79
- Lit. HSA % (HSA [2]): 14.06%

Molecule: O=C(O)c1ccccc1 [Benzoic Acid]
- Lit. HSA % (HSA [2]): 34.27%

- HSA Binding (HSA [1]): 14.3%
Molecule: O=C(O)CC[C@H](NC(=O)N[C@@H](CCCCNC(=O)c1ccc(F)nc1)C(=O)O)C(=O)O [DCFPyL]

- Log K HSA (HSA [1]): 1.69
Molecule: COc1ccc(Cl)cc1C(=O)NCCc1ccc(S(=O)(=O)NC(=O)NC2CCCCC2)cc1 [Glibenclamide]
- Lit. HSA % (HSA [2]): 99.00%

Molecule: Oc1ccccc1 [Phenol]
- Log K HSA (HSA [1]): −0.59
- Lit. HSA % (HSA [2]): 20.69%

Molecule: CCCN(CCC)S(=O)(=O)c1ccc(C(=O)O)cc1 [Probenecid]
- Lit. HSA % (HSA [2]): 95.00%

Molecule: O=[N+]([O-])c1ccc(O)cc1 [p-nitrophenol]
- Lit. HSA % (HSA [2]): 77.65%

Molecule: CC(C)(C)[Si](F)(c1ccc(C(=O)NC[C@@H](NC(=O)CC[C@H](C(=O)O)N2CCN(CC(=O)O)CCN(CC(=O)O)CCN(CC(=O)O)CC2)C(=O)N[C@H](CCCCNC(=O)CCC(=O)NCCC[C@@H](NC(=O)CC[C@H](NC(=O)N[C@@H](CCC(=O)O)C(=O)O)C(=O)O)C(=O)O)C(=O)O)cc1)C(C)(C)C [rhPSMA7.1, [^19F][^natGa]D-Dap-R-DOTAGA-rhPSMA7, metal not drawn]
- internalization rate Mean (LNCaP cells): 69.55 % of [^125I]IB-KuE
- individual internalization rates (LNCaP cells): 77.5 % of [^125I]IB-KuE and 61.8 % of [^125I]IB-KuE and 70.6 % of [^125I]IB-KuE and 68.0 % of [^125I]IB-KuE and 67.9 % of [^125I]IB-KuE and 71.5 % of [^125I]IB-KuE
- internalization (LNCaP cells; [6]): 69.55%±5.29
- IC50 (PSMA; [7]): 5.04 nM and 7.11 nM and 8.31 nM and 4.97 nM and 6.44 nM and 8.74 nM and 6.91 nM and 7.27 nM
- IC50 (PSMA; [8]): 6.85 nM
- HSA Binding (HSA [1]): 97.7%
- Biodistribution adrenals [3]: 2.0 ± 0.25 % ID/g
- Biodistribution blood [3]: 0.53 ± 0.13 % ID/g
- Biodistribution bone [3]: 0.50 ± 0.31 % ID/g
- Biodistribution heart [3]: 0.53 ± 0.03 % ID/g
- Biodistribution intestine [3]: 0.30 ± 0.16 % ID/g
- Biodistribution kidneys [3]: 220 ± 24.8 % ID/g
- Biodistribution liver [3]: 0.75 ± 0.62 % ID/g
- Biodistribution lung [3]: 1.1 ± 0.21 % ID/g
- Biodistribution muscle [3]: 0.32 ± 0.30 % ID/g
- Biodistribution pancreas [3]: 0.45 ± 0.12 % ID/g
- Biodistribution spleen [3]: 20.0 ± 4.2 % ID/g
- Biodistribution stomach [3]: 0.28 ± 0.17 % ID/g
- Biodistribution tumor [3]: 14.1 ± 4.1 % ID/g

Molecule: CC(C)(C)[Si](F)(c1ccc(C(=O)NC[C@H](NC(=O)CC[C@H](C(=O)O)N2CCN(CC(=O)O)CCN(CC(=O)O)CCN(CC(=O)O)CC2)C(=O)N[C@H](CCCCNC(=O)CCC(=O)NCCC[C@@H](NC(=O)CC[C@H](NC(=O)N[C@@H](CCC(=O)O)C(=O)O)C(=O)O)C(=O)O)C(=O)O)cc1)C(C)(C)C [rhPSMA7.2, [^19F][^natGa]L-Dap-R-DOTAGA-rhPSMA7, metal not drawn]
- internalization rate Mean (LNCaP cells): 191.83 % of [^125I]IB-KuE
- individual internalization rates (LNCaP cells): 192.3 % of [^125I]IB-KuE and 188.7 % of [^125I]IB-KuE and 182.7 % of [^125I]IB-KuE and 169.5 % of [^125I]IB-KuE and 205.3 % of [^125I]IB-KuE and 212.6 % of [^125I]IB-KuE
- internalization (LNCaP cells; [6]): 191.83%±15.54
- individual log P measurements ([4]; octanol/PBS7.4, single measurements): −3.00 and −3.02 and −3.06 and −3.45
- logP ([4]; pH 7.4, log P): -3.13 ± 0.22
- logP ([4]; pH 7.4, log P Mean): -3.13
- IC50 (PSMA; [7]): 2.64 nM and 2.76 nM and 3.94 nM and 5.8 nM and 4.31 nM and 4.32 nM and 3.17 nM and 2.97 nM and 3.36 nM
- IC50 (PSMA; [8]): 3.7 nM
- HSA Binding (HSA [1]): 97.8%
- Biodistribution adrenals [3]: 1.3 ± 0.8 % ID/g
- Biodistribution blood [3]: 0.56 ± 0.20 % ID/g
- Biodistribution bone [3]: 0.31 ± 0.24 % ID/g
- Biodistribution heart [3]: 0.32 ± 0.13 % ID/g
- Biodistribution intestine [3]: 0.18 ± 0.07 % ID/g
- Biodistribution kidneys [3]: 87.6 ± 28.8 % ID/g
- Biodistribution liver [3]: 0.35 ± 0.08 % ID/g
- Biodistribution lung [3]: 0.89 ± 0.38 % ID/g
- Biodistribution muscle [3]: 0.13 ± 0.07 % ID/g
- Biodistribution pancreas [3]: 0.21 ± 0.08 % ID/g
- Biodistribution spleen [3]: 10.1 ± 6.3 % ID/g
- Biodistribution stomach [3]: 0.19 ± 0.08 % ID/g
- Biodistribution tumor [3]: 6.5 ± 2.3 % ID/g

Molecule: CC(C)(C)[Si](F)(c1ccc(C(=O)NC[C@H](NC(=O)CC[C@@H](C(=O)O)N2CCN(CC(=O)O)CCN(CC(=O)O)CCN(CC(=O)O)CC2)C(=O)N[C@H](CCCCNC(=O)CCC(=O)NCCC[C@@H](NC(=O)CC[C@H](NC(=O)N[C@@H](CCC(=O)O)C(=O)O)C(=O)O)C(=O)O)C(=O)O)cc1)C(C)(C)C [rhPSMA7.4, [^19F][^natGa]L-Dap-S-DOTAGA-rhPSMA7, metal not drawn]
- internalization rate Mean (LNCaP cells): 207.33 % of [^125I]IB-KuE
- individual internalization rates (LNCaP cells): 209.6 % of [^125I]IB-KuE and 202.6 % of [^125I]IB-KuE and 209.8 % of [^125I]IB-KuE
- internalization (LNCaP cells; [6]): 207.33±4.06%
- IC50 (PSMA; [7]): 3.4 nM and 3.56 nM and 2.79 nM and 4.57 nM and 3.78 nM
- IC50 (PSMA; [8]): 3.62 nM
- HSA Binding (HSA [1]): 96.6%
- Biodistribution adrenals [3]: 3.57 ± 2.38 % ID/g
- Biodistribution blood [3]: 1.15 ± 0.30 % ID/g
- Biodistribution bone [3]: 0.62 ± 0.30 % ID/g
- Biodistribution heart [3]: 0.71 ± 0.26 % ID/g
- Biodistribution intestine [3]: 0.37 ± 0.09 % ID/g
- Biodistribution kidneys [3]: 153 ± 80.3 % ID/g
- Biodistribution liver [3]: 0.69 ± 0.20 % ID/g
- Biodistribution lung [3]: 1.59 ± 0.61 % ID/g
- Biodistribution muscle [3]: 0.31 ± 0.08 % ID/g
- Biodistribution pancreas [3]: 0.50 ± 0.30 % ID/g
- Biodistribution spleen [3]: 18.4 ± 9.77 % ID/g
- Biodistribution stomach [3]: 0.25 ± 0.06 % ID/g
- Biodistribution tumor [3]: 18.9 ± 3.27 % ID/g

Molecule: PSMA-1007 [reference compound]
- internalization (LNCaP cells; other selected PSMA inhibitors, own lab, identical assay (Robu et al. 2018)): 118 ± 4 % of [^125I]IB-KuE
- log P ([4]; octanol/PBS7.4, (n = 6)): −1.6
- IC50 (PSMA; other selected PSMA inhibitors, own lab, identical binding assay (Robu et al. 2018), read-out: IC50): 4.2 ± 0.5 nM
- HSA Binding (HSA [1]): 97.8%

Molecule: SIFA-Asn(AcNH-β-Glc)-PEG-Tyr^3-octreotate
- log P(ow) [5]: 0.96

Molecule: SIFA-Asn(AcNH-β-Glc)-Tyr^3-octreotate
- log P(ow) [5]: 1.23
